The record followed here is paper PMC2836207 (Journal of medicinal chemistry, 2009).

The target in this experiment is MDA-MB-231 cells (Homo sapiens, UniProt P05556+P26006). Put plainly: on-bead whole cell binding assay. The class given is cell-based. The conditions noted are these: cell-growth-on-bead assay.
Sequence of MDA-MB-231 cells (P26006 33-1051): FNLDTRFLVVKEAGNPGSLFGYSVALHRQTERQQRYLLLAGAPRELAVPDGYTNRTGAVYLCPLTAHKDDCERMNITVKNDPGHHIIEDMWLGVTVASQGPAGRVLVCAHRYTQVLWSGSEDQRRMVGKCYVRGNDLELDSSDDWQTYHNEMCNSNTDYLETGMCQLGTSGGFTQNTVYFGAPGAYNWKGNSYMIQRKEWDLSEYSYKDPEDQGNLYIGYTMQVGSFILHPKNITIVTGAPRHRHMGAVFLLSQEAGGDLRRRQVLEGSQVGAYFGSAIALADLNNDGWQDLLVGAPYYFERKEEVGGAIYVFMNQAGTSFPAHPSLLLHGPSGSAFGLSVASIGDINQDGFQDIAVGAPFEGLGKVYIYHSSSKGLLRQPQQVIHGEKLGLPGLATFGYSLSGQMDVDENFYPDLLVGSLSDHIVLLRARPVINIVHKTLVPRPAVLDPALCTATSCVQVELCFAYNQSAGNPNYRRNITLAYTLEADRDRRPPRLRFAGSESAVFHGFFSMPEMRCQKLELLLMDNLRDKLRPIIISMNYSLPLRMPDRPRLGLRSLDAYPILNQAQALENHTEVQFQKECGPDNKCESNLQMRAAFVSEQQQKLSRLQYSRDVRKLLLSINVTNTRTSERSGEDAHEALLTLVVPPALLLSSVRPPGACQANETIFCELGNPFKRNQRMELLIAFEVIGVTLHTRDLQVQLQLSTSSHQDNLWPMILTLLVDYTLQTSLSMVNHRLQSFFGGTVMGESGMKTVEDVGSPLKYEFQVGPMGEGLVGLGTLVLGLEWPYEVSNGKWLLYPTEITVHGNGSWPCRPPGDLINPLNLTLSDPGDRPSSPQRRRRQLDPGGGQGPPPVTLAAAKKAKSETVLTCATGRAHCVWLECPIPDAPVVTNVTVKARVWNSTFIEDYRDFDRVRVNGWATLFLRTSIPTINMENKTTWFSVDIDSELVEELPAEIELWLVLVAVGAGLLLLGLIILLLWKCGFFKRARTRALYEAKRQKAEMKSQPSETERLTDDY
Sequence of MDA-MB-231 cells (P05556 21-798): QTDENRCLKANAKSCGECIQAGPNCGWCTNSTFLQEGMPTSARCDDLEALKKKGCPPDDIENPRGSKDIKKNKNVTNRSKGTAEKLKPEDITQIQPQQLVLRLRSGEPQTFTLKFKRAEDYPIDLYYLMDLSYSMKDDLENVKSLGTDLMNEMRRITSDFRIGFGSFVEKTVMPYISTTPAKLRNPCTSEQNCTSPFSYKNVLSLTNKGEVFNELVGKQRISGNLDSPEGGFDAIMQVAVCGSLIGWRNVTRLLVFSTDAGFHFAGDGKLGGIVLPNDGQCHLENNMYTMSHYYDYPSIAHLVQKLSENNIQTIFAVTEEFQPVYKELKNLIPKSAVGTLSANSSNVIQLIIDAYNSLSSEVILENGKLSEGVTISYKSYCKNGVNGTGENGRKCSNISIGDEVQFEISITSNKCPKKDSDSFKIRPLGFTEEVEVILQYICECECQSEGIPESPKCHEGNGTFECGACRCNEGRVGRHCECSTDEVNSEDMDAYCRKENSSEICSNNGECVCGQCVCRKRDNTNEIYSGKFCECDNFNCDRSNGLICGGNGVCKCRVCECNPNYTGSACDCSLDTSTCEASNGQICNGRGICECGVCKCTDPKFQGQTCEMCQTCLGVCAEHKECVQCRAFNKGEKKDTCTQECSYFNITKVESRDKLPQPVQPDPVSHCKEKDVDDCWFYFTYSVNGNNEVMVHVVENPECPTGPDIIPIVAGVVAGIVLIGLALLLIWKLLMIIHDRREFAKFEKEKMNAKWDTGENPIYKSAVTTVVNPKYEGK

On to cEGLGEWc, for which the “cell binding to peptide bead” value was “shown to bind”.
